Measurements from patent US20020146411A1, “Anticoagulant agents useful in treatment of thrombosis” (SmithKline Beecham Corporation, priority 1996, published 2002).
“Also recorded” adds a separate entry of the source.

What was measured:
[1] = test system: rat carotid artery thrombosis; test: Rat carotid artery thrombosis model (FeCl3 injury), Example 3; assay type: in vivo
Text: In order to evaluate the efficacy of anti-Factor IX antibodies in prevention of arterial thrombosis, the rat carotid artery thrombosis model as reported by Schumacher et al. in J. Cardio. Pharm. 22, 526-533 (1993) was adapted. This model consists of segmental injury to the carotid endothelium by oxygen radicals generated by FeCl3 solution applied on the surface of the carotid artery.
In brief, rats were anesthetized with pentobarbitone sodium, the jugular vein cannulated for intravenous injections and the left femoral artery cannulated for blood pressure and heart rate monitoring. The carotid artery was isolated by aseptic technique via a surgical incision in the neck and equipped with a magnetic flow probe for blood flow measurement. After a period of stabilization, baseline parameters were established for the following variables: carotid blood flow, arterial pressure, heart rate, activated partial thromboplastin time (aPTT) and prothrombin time (PT). Thereafter, a premeasured Whatman filter paper soaked in 50% FeCl3 solution was placed on the carotid artery for 15 minutes for complete injury of the underlying endothelial cells. After removal of the FeCl3 soaked paper, the experiment was followed to completion over 60 minutes. At the end of the experiment, the carotid thrombus was extracted from the carotid artery and weighed.
All agents were administered 15 minutes prior to the onset of carotid injury. The following treatments were examined and compared to the Factor IX mAb BC2.
1. Heparin: 15, 30, 60 or 120 U/kg bolus, followed by infusion of 0.5, 1, 2 or 4 U/kg/min, respectively over 60 minutes
2. Acetylsalicylic acid (ASA, aspirin): 5 mg/kg bolus
3. Anti-Factor IX mAb BC2: 1, 3 or 6 mg/kg bolus, followed by infusion 0.3, 1, or 2 ug/kg/min, respectively over 60 minutes
4. Heparin: 30U/kg bolus+lU/kg/min+ASA at 5 mg/kg
5. Anti-Factor IX mAb BC2: 1 mg/kg+0.3 ug/kg/min+ASA at 5 mg/kg

BC2 antibody = test: BiaCore binding of Factor IX/Factor VII constructs to immobilized BC2; settings: for Degree of Binding to BC2: 200 nM construct, 25 mM MOPS pH 7.4, 0.15 M NaCl, 5 mM CaCl2
Protocol: A library of chimeric constructs composed of sequences of Factor IX spliced into the framework of the homologous protein Factor VII was constructed and used to map the epitope for the Factor IX BC2 mAb. See Cheung et al., Thromb. Res. 80, 419-427 (1995). Binding was measured using a BiaCore 2000 surface plasmon resonance device. The BC2 antibody was coupled directly to the chip using the NHS/EDC reaction. Binding was measured by 2 min of contact time at 20 uL/min with 200 nM of each of the given constructs in 25 mM MOPS, pH 7.4, 0.15 M NaCl, 5 mM CaCl2. Dissociation was monitored for 3 min using the same buffer with no protein. No binding was detected to the wild type construct in the presence of 50 mM EDTA.

Compound | Degree of Binding to BC2 (BC2 antibody) | other results
CC(=O)Oc1ccccc1C(=O)O [ASA, Acetylsalicylic acid, reference compound] |  | effect on carotid artery occlusion (FIG. 6) [1]: only a minor effect; effect on thrombus weight (FIG. 7) [1]: only a partial effect; effect on aPTT at 60 minutes (FIG. 4) ([1]; regimens of b146-b150, given 15 minutes before injury): did not significantly increase aPTT
IX K5A: Factor IX having a lysine to alanine substitution at residue 5 | exhibit binding to BC2; also recorded: Binds | 
Plasma IXa: plasma Factor IXa, wild type Factor IX | Binds | 
Plasma VII: plasma Factor VII | No Binding | 
VII gla (IX 3-6)/IX: chimeric Factor VII/Factor IX construct | Very Low Binding | 
VII gla (IX 3-11)/IX: residues 3-11 of Factor IX gla domain within the Factor VII gla domain | exhibit binding to BC2; also recorded: equivalent to wild type Factor IX; also recorded: Binds | 
VII gla (IX 9-11)/IX: chimeric Factor VII/Factor IX construct | Very Low Binding | 
VII gla/IX: chimeric Factor VII/Factor IX construct | No Binding | 
r-IX: recombinant wild type Factor IX | Binds | 
wild type construct: wild type Factor IX construct used in BC2 epitope mapping |  | binding to BC2 in the presence of EDTA (BC2 antibody; 50 mM EDTA): No binding
